From US8852928B2, “LexA-based chemical-inducible gene expression system for use in transgenic animals” (Temasek Life Sciences Laboratory Limited, priority 2007, dated 2014)
“Also recorded” adds a separate entry of the source.

Experiments:
[1] = biological target: T1, LexPR transactivator (Homo sapiens, UniProt P06401); experiment: Time required to switch off EGFP reporter expression after mifepristone withdrawal; type: in vivo, zebrafish; parameters: key to Reporter expression, RU486 incubation / Reporter expression after RU486 withdrawal / Reporter expression, continuous induction (time of RU486 incubation): +: Fluorescence signal is similar to the control.; ±: Fluorescence signal is obviously weaker that in control.; −: No EGFP fluorescence (except autofluorescence)observed using the fluorescent stereomicroscope
T1 construct: expressed in transfected cells; host or cells: germline-transgenic zebrafish (Danio rerio) carrying the Ds transposon driver cassette pDs(krt8:LPR-LOP:G4) or derivatives
T1 sequence (P06401 640-914): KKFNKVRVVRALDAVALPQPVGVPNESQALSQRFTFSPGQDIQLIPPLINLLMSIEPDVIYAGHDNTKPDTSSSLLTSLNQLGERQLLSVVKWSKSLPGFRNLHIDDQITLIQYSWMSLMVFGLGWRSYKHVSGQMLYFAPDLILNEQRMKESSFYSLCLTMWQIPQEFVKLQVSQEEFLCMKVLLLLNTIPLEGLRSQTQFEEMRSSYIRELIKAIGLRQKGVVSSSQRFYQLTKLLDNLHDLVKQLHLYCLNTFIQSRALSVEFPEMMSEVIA
Source text: To avoid confusion, the corresponding developmental times are indicated. A Nikon SMZ1600 fluorescent stereomicroscope was used for rough estimation of the EGFP fluorescence.

[2] = biological target: T1, LexPR transactivator; experiment: Rate of transcription induction, whole mount in situ hybridization for EGFP transcript; type: in vivo, zebrafish; conditions: 1 μM
Procedure: RNA in situ hybridization: Whole mount in situ hybridization using antisense RNA probes for full length LexPR transactivator and EGFP labeled with digoxigenin (Roche, USA) was carried out as previously described (Oxtoby and Jowett, 1993). After in situ hybridization stained embryos were mounted in PBS-glycerol and viewed using Nikon SMZ1600 stereomicroscope. Images were taken with Nikon DXM1200F digital camera with the Nikon ACT-1 software and processed using Adobe Photoshop 7.0.1 software.
To accurately estimate the rate of induction, it is more appropriate to measure the transcript rather than the protein product, especially if the gene of interest contains sequences for RNAi, microRNA or other non-coding RNAs.

[3] = biological target: T1, LexPR transactivator; experiment: Trans-activation of mCherry effector in effector and double transgenic fish; type: in vivo, zebrafish; conditions: 1 μM
Procedure: Two independent driver lines with different LexPR transactivator expression patterns (shown on FIGS. 4A, 4D) were crossed with two independent transgenic effector lines, which carried mCherry gene under control of the LexOP. […] Images were captured at 96 hours post fertilization.
This effector cassette harbors a gene for red fluorescent protein “mCherry” under the control of the LexOP sequence (Example 3).

[4] = biological target: T1, LexPR transactivator; experiment: RT-PCR detection of EGFP transcript after mifepristone withdrawal; type: in vivo, zebrafish; conditions: 5 days after withdrawal; 12 hours induction with 1 μM
[5] = system: zebrafish development; experiment: Side effects on development of LexPR transgenic fish upon induction; type: in vivo
Source text: FIG. 13b: Control wild type fish. FIG. 13c: Transgenic F2 embryos harboring the LexPR driver-reporter cassette described in this manuscript.

[6] = biological target: T1, LexPR transactivator; experiment: Control of maternal EGFP expression by treating transgenic females; type: in vivo, zebrafish; conditions: 1 μM for 12 hours before crossing

Reporter expression after RU486 withdrawal ([1]; 100 nM, 1 hour RU486 incubation, 24 h after withdrawal, 61hpf): + | Reporter expression after RU486 withdrawal ([1]; 100 nM, 1 hour RU486 incubation, 48 h after withdrawal, 85hpf): − | Reporter expression after RU486 withdrawal ([1]; 100 nM, 1 hour RU486 incubation, 72 h after withdrawal, 109hpf): − | Reporter expression after RU486 withdrawal ([1]; 100 nM, 1 hour RU486 incubation, 96 h after withdrawal, 133hpf): − | Reporter expression after RU486 withdrawal ([1]; 100 nM, 1 hour RU486 incubation, 120 h after withdrawal, 157hpf): − | Reporter expression after RU486 withdrawal ([1]; 100 nM, 1 hour RU486 incubation, 144 h after withdrawal, 181hpf): − | Minimal time after RU486 withdrawal to turn off the reporter expression ([1]; 100 nM, 1 hour induction): 2 days | Reporter expression, RU486 incubation ([1]; 100 nM, 12 hours RU486 incubation - withdrawal, at 12 h incubation, 48hpf): + | Reporter expression after RU486 withdrawal ([1]; 100 nM, 12 hours RU486 incubation, 12 h after withdrawal, 60hpf): + | Reporter expression after RU486 withdrawal ([1]; 100 nM, 12 hours RU486 incubation, 24 h after withdrawal, 72hpf): ± | Reporter expression after RU486 withdrawal ([1]; 100 nM, 12 hours RU486 incubation, 48 h after withdrawal, 96hpf): ± | Reporter expression after RU486 withdrawal ([1]; 100 nM, 12 hours RU486 incubation, 72 h after withdrawal, 120hpf): − | Reporter expression after RU486 withdrawal ([1]; 100 nM, 12 hours RU486 incubation, 96 h after withdrawal, 144hpf): − | Reporter expression after RU486 withdrawal ([1]; 100 nM, 12 hours RU486 incubation, 120 h after withdrawal, 168hpf): − | Reporter expression after RU486 withdrawal ([1]; 100 nM, 12 hours RU486 incubation, 144 h after withdrawal, 192hpf): − | Minimal time after RU486 withdrawal to turn off the reporter expression ([1]; 100 nM, 12 hours induction): 3 days | Reporter expression, continuous induction (time of RU486 incubation) ([1]; 100 nM, 24-156 h incubation, 60-192 hpf): + | Reporter expression, continuous induction (time of RU486 incubation) ([1]; 100 nM, 1 h incubation): − | Reporter expression, continuous induction (time of RU486 incubation) ([1]; 100 nM, 12 h incubation): + | Reporter expression, continuous induction (time of RU486 incubation) ([1]; 100 nM, 13 h incubation, 49hpf): + | Reporter expression, continuous induction (time of RU486 incubation) ([1]; 100 nM, 24 h incubation, 60hpf): + | Reporter expression, RU486 incubation ([1]; 1 μM, 1 hour RU486 incubation - withdrawal, at 1 h incubation, 37hpf): − | Reporter expression after RU486 withdrawal ([1]; 1 μM, 1 hour RU486 incubation, 12 h after withdrawal, 49hpf): + | Reporter expression after RU486 withdrawal ([1]; 1 μM, 1 hour RU486 incubation, 24 h after withdrawal, 61hpf): + | Reporter expression after RU486 withdrawal ([1]; 1 μM, 1 hour RU486 incubation, 48 h after withdrawal, 85hpf): + | Reporter expression after RU486 withdrawal ([1]; 1 μM, 1 hour RU486 incubation, 72 h after withdrawal, 109hpf): ± | Reporter expression after RU486 withdrawal ([1]; 1 μM, 1 hour RU486 incubation, 96 h after withdrawal, 133hpf): ± | Reporter expression after RU486 withdrawal ([1]; 1 μM, 1 hour RU486 incubation, 120 h after withdrawal, 157hpf): − | Reporter expression after RU486 withdrawal ([1]; 1 μM, 1 hour RU486 incubation, 144 h after withdrawal, 181hpf): − | Minimal time after RU486 withdrawal to turn off the reporter expression ([1]; 1 μM, 1 hour induction): 5 days | Reporter expression, RU486 incubation ([1]; 1 μM, 12 hours RU486 incubation - withdrawal, at 12 h incubation, 48hpf): + | Reporter expression after RU486 withdrawal ([1]; 1 μM, 12 hours RU486 incubation, 12 h after withdrawal, 60hpf): + | Reporter expression after RU486 withdrawal ([1]; 1 μM, 12 hours RU486 incubation, 24 h after withdrawal, 72hpf): + | Reporter expression after RU486 withdrawal ([1]; 1 μM, 12 hours RU486 incubation, 48 h after withdrawal, 96hpf): + | Reporter expression after RU486 withdrawal ([1]; 1 μM, 12 hours RU486 incubation, 72 h after withdrawal, 120hpf): ± | Reporter expression after RU486 withdrawal ([1]; 1 μM, 12 hours RU486 incubation, 96 h after withdrawal, 144hpf): ± | Reporter expression after RU486 withdrawal ([1]; 1 μM, 12 hours RU486 incubation, 120 h after withdrawal, 168hpf): ± | Reporter expression after RU486 withdrawal ([1]; 1 μM, 12 hours RU486 incubation, 144 h after withdrawal, 192hpf): − | Minimal time after RU486 withdrawal to turn off the reporter expression ([1]; 1 μM, 12 hours induction): 6 days | Reporter expression, continuous induction (time of RU486 incubation) ([1]; 1 μM, 24-156 h incubation, 60-192 hpf): + | Reporter expression, continuous induction (time of RU486 incubation) ([1]; 1 μM, 1 h incubation): − | Reporter expression, continuous induction (time of RU486 incubation) ([1]; 1 μM, 12 h incubation): + | Reporter expression, continuous induction (time of RU486 incubation) ([1]; 1 μM, 13 h incubation, 49hpf): + | Reporter expression, continuous induction (time of RU486 incubation) ([1]; 1 μM, 24 h incubation, 60hpf): + | Duration of EGFP fluorescence in mifepristone-free water ([1]; following 12 hours treatment with 1 μM): 5 days | Time of induction to maximum transcript level [2]: approximately nine | EGFP transcript by RT-PCR after withdrawal [4]: can be detected
SMILES: CC#C[C@]1(O)CC[C@H]2[C@@H]3CCC4=CC(=O)CCC4=C3[C@@H](c3ccc(N(C)C)cc3)C[C@@]21C [mifepristone]
Background mCherry fluorescence in effector lines (effector cassette only) [3]: No background mCherry fluorescence was detected; also recorded: not detected | Reporter expression in double transgenic embryos (driver and effector) [3]: both reporters (EGFP/driver and mCherry/effector) were co-expressed in the same cells | Effect on embryo development and cell morphology, LexPR driver-reporter F2 embryos ([5]; 1 μM in the growth water 10 hpf onwards): does not affect embryo development and morphology of the EGFP-positive cells | Side effects on zebrafish development ([5]; 10 μM at 1-cell stage, LexPR system): did not observe obvious side effects | Maternal EGFP expression in offspring of treated transgenic F2 females [6]: produced GFP-positive eggs; also recorded: All the F3 embryos showed maternal EGFP expression
